According to publication PMC8949142 (2022):

Experiments:
[1] = tested on: G48nop (DNA, aptamer) GCGACCGAAGTGAGGCTCGATCCAAGGTGGACGGGAGGTTGGATTGTGCGTG; assay: biolayer interferometry; conditions: 100 mM Na+, 5 mM K+, 2 mM Mg2+, 1 mM Ca2+, 20 mM Tris-HCl pH 7.6
[2] = tested on: G48nop (FAM) (DNA, aptamer) GCGACCGAAGTGAGGCTCGATCCAAGGTGGACGGGAGGTTGGATTGTGCGTG; assay: microscale thermophoresis; conditions: 100 mM Na+, 5 mM K+, 2 mM Mg2+, 1 mM Ca2+, 20 mM Tris-HCl pH 7.6, 0.02% Tween-20, 25 °C
[3] = tested on: G48nop (unlabeled) (DNA, aptamer) GCGACCGAAGTGAGGCTCGATCCAAGGTGGACGGGAGGTTGGATTGTGCGTG; assay: circular dichroism; conditions: 100 mM Na+, 5 mM K+, 2 mM Mg2+, 1 mM Ca2+; 20 mM Tris-HCl pH 7.6, 20 °C; 5 µM aptamer; qualitative
[4] = tested on: G48 (DNA, aptamer) GGGAGGACGAAGCGGAACGCGACCGAAGTGAGGCTCGATCCAAGGTGGACGGGAGGTTGGATTGTGCGTGCAGAAGACACGCCCGACA; assay: biolayer interferometry; conditions: 100 mM Na+, 5 mM K+, 2 mM Mg2+, 1 mM Ca2+; 20 mM Tris-HCl pH 7.6; 1:1 fit
[5] = tested on: G13 (DNA, aptamer) GGGAGGACGAAGCGGAACCCATGGGGTGTGAGGCTCGATCAGGAGGTAAAAGCAGCGCGTCGTCAGTGTGCAGAAGACACGCCCGACA; assay: biolayer interferometry; conditions: 100 mM Na+, 5 mM K+, 2 mM Mg2+, 1 mM Ca2+; 20 mM Tris-HCl pH 7.6; 1:1 fit
[6] = tested on: G16 (DNA, aptamer) GGGAGGACGAAGCGGAACCACCTTGAGATGAGGCTCGATCACCGGTGGGTATAGTGGTCGCGATGTATACCAGAAGACACGCCCGACA; assay: biolayer interferometry; conditions: 100 mM Na+, 5 mM K+, 2 mM Mg2+, 1 mM Ca2+; 20 mM Tris-HCl pH 7.6; 1:1 fit
[7] = tested on: G79 (DNA, aptamer) GGGAGGACGAAGCGGAACGGGGGTGGGTTGAGGCTCGATCATGATAGCGAATTGGACACGATTCGTGTACCAGAAGACACGCCCGACA; assay: biolayer interferometry; conditions: 100 mM Na+, 5 mM K+, 2 mM Mg2+, 1 mM Ca2+; 20 mM Tris-HCl pH 7.6; 1:1 fit
[8] = tested on: G29 (DNA, aptamer) GGGAGGACGAAGCGGAACCGTAGGAAAGTGAGGCTCGATCTACCCTTGGATCGATTTGTCAGGTGGGGACCAGAAGACACGCCCGACA; assay: biolayer interferometry; conditions: 100 mM Na+, 5 mM K+, 2 mM Mg2+, 1 mM Ca2+; 20 mM Tris-HCl pH 7.6; 1:1 fit
[9] = tested on: G24 (DNA, aptamer) GGGAGGACGAAGCGGAACGGGCGGGATTTGAGGCTCGATCCGACTACGGATACGGCTTGCTTGTATCCGCCAGAAGACACGCCCGACA; assay: biolayer interferometry; conditions: 100 mM Na+, 5 mM K+, 2 mM Mg2+, 1 mM Ca2+; 20 mM Tris-HCl pH 7.6; 1:1 fit
[10] = tested on: G48nors (DNA, aptamer) TGAGGCTCGATCCAAGGTGGACGGGAGGTTGGATTGTGCGTG; assay: biolayer interferometry; conditions: 100 mM Na+, 5 mM K+, 2 mM Mg2+, 1 mM Ca2+; 20 mM Tris-HCl pH 7.6; 1:1 fit
[11] = tested on: G48norsj (DNA, aptamer) CGATCCAAGGTGGACGGGAGGTTGGATTG; assay: biolayer interferometry; conditions: 100 mM Na+, 5 mM K+, 2 mM Mg2+, 1 mM Ca2+; 20 mM Tris-HCl pH 7.6; 1:1 fit
[12] = tested on: random sequence (control) (DNA, single strand) GAGCCTTAGCAGCACTTCACACGATCCACCCTTAAGGCCAACCTTAACACGACCTCAAACACTGCGTAATGACTGTAGTGATGCCTTA; assay: biolayer interferometry; conditions: 100 mM Na+, 5 mM K+, 2 mM Mg2+, 1 mM Ca2+; 20 mM Tris-HCl pH 7.6; tested at 0.5 µM
[13] = tested on: control (random) sequence (FAM) (DNA, single strand) GAGCCTTAGCAGCACTTCACACGATCCACCCTTAAGGCCAACCTTAACACGACCTCAAACACTGCGTAATGACTGTAGTGATGCCTTA; assay: microscale thermophoresis; conditions: 100 mM Na+, 5 mM K+, 2 mM Mg2+, 1 mM Ca2+; 20 mM Tris-HCl pH 7.6, 0.02% Tween-20, 25 °C; GYM-A up to 10,000 nM; not fittable
[14] = tested on: G48nop (DNA, aptamer) GCGACCGAAGTGAGGCTCGATCCAAGGTGGACGGGAGGTTGGATTGTGCGTG; assay: BLI aptasensor calibration, five-parameter logistic fit; conditions: 100 mM Na+, 5 mM K+, 2 mM Mg2+, 1 mM Ca2+; 20 mM Tris-HCl pH 7.6; GYM-A 55–14,000 nM; slope exponent -0.7837

SMILES | binding ([1]; tested up to 1.5 µM) | binding ([2]; NB [sic], highest concentration not stated) | binding [3] | KD [4] | KD [5] | KD [6] | KD [7] | KD [8] | KD [9] | KD ([1]; 1:1 fit) | KD [10] | KD [11] | binding [12] | KD [2] | binding [13] | EC50 [14]
C=C1[C@@H](O)[C@@H]2O[C@]3(CC[C@H](/C=C/[C@@H](C)[C@@H]4CC(C)=C[C@@]5(O[C@H](C[C@@](C)(O)C(=O)O)CC[C@H]5O)O4)O3)CC[C@H]2O[C@@H]1[C@@H](O)C[C@H](C)[C@H]1O[C@@]2(CCCCO2)CC[C@H]1C | no | no | – | – | – | – | – | – | – | – | – | – | – | – | – | –
CC1=C[C@@H](C2=C(C)[C@@H]3/C=C(\C)[C@@H](O)CC[C@@H]4C[C@@H](C)[C@@H](O4)/C(C)=C/CCC4=NCCC[C@@]43CC2)OC1=O | – | – | yes | 288 nM | 168,000 nM | 495 nM | 341 nM | 308 nM | 859 nM | 95.30 nM | 354.00 nM | 501.00 nM | no | 34.50 ± 1.72 nM | no | 3316 nM
